Assay results from patent publication US6830894B1, “Compounds and methods for modulating claudin-mediated functions” (Adherex Technologies, Inc., priority 1998, dated 2004).

System: MDCK cell monolayers
Experiment: Electrical resistance across MDCK cell monolayer
Format: cell-based, canine
Protocol: Yet another assay evaluates the effect of a modulating agent on the electrical resistance across a monolayer of cells. For example, Madin Darby canine kidney (MDCK) cells can be exposed to the modulating agent dissolved in medium (e.g., at a final concentration of 0.5 mg/ml for a period of 24 hours). The effect on electrical resistance can be measured using standard techniques. This assay evaluates the effect of a modulating agent on tight junction formation in epithelial cells. In general, the presence of 500 μg/mL modulating agent should result in a statistically significant decrease in electrical resistance after 24 hours.
Madin Darby canine kidney (MDCK) cells were plated in Millicells (Millipore, Bedford, Mass.), at a density of 300,000 cells per Millicell, and cultured in Dulbecco's Modified Eagle Medium (DMEM; Sigma, St. Louis, Mo.) containing 5% fetal calf serum (Sigma, St. Louis, Mo.) until monolayers formed. Monolayers were exposed to the modulating agent dissolved in medium. The electrical resistance was measured using the EVOM device (World Precision Instruments, Sarasota, Fla.). At the time of measurement, fresh medium, with or without the modulating agent, may be added to the Millicells.

[1] = cultured for 18 hours, peptide at 0.5 mg/ml, relative to medium alone (Control), FIG. 3

Row | Substance | mean electrical resistance across MDCK cell monolayers [1] | mean electrical resistance across MDCK cell monolayers (cultured for 24 hours, peptide at various concentrations, versus medium alone (Control), FIG. 4)
1 | H-WKIYSYAGDN-NH2 [Peptide 119] | did not change the electrical resistance across the monolayer relative to the control | 
2 | N—Ac-WKIYSYAGDN-NH2 [Peptide 118] | reduced the electrical resistance across the monolayer | reduced the electrical resistance across the monolayer in a dose dependent manner
